{"source": "paper PMC2787644", "about": "(Clinical cancer research : an official journal of the …, 2009)", "key": {"[1]": {"conditions": "70 mg/m^2, combined with irinotecan; cited from earlier work"}, "[2]": {"test": "Flavopiridol plasma pharmacokinetics", "format": "in vivo", "conditions": "human, intravenous, 80 mg/m2, Cmax, cohort 7a (80 mg/m^2)"}, "cisplatin-refractory GCT": {"system": "cisplatin-refractory GCT", "conditions": "single agent, cited from earlier work"}, "[3]": {"format": "in vivo, human", "conditions": "component of flavopiridol + FOLFOX"}}, "note": "Read-outs that look alike come from different tables or passages of the source."}
{"smiles": "CN1CC[C@H](c2c(O)cc(O)c3c(=O)cc(-c4ccccc4Cl)oc23)[C@H](O)C1", "note": "[flavopiridol, Flavopiridol]", "values": [{"measurement": "Cmax", "setting": "[1]", "value": "2760 ± 540", "unit": "nM"}, {"measurement": "Cmax", "setting": "[2]; the 3 patients who experienced a DLT", "value": 2260, "unit": "nM"}, {"measurement": "Cmax", "setting": "[2]; the other patients in the cohort", "value": 1450, "unit": "nM"}]}
{"smiles": "O=C1[O][Pt]2([NH][C@@H]3CCCC[C@H]3[NH]2)[O]C1=O", "note": "[oxaliplatin]", "values": [{"measurement": "Overall response rate", "setting": "cisplatin-refractory GCT; 60 mg/m^2 weekly on days 1, 8, 15 every 28 days", "value": 6, "unit": "%"}, {"measurement": "Objective response rate", "setting": "cisplatin-refractory GCT; 130 mg/m^2 every 2 weeks", "value": 19, "unit": "%"}]}
{"smiles": "O=c1[nH]cc(F)c(=O)[nH]1", "note": "[5FU, fluorouracil]", "values": [{"measurement": "Maximum tolerated dose (MTD), continuous infusion over 48 hours", "setting": "[3]; every 2 weeks (cohort 6a)", "value": 1800, "unit": "mg/m^2"}, {"measurement": "Maximum tolerated dose (MTD), bolus", "setting": "[3]; every 2 weeks (fixed dose)", "value": 400, "unit": "mg/m^2"}]}
